Experimental data taken from US20260069599A1, “INHIBITORS OF BROMODOMAIN-CONTAINING PROTEIN 4 AND PHOSPHOINOSITIDE 3-KINASE” (Board of Regents of the University of Nebraska, priority 2022, published 2026).
“Also recorded” adds a separate entry of the source. Like-named read-outs stand apart in the source and are kept apart here.

Columns and labels:
BRD4-BD2 = BRD4-BD2 (Homo sapiens, UniProt O60885); experiment: Protein Thermal Shift (PTS) assay on BRD4-BD2; assay type: binding; set-up: polyhistidine (N, cleaved yes); made in house; host or cells: E. coli (T7 express); conditions: 100 μM ligand, 20 μM BD protein
Description: The genes encoding human BRD2-BD1, BRD2-BD2, and BRD4-BD2 were codon-optimized for expression in E. coli. […] The sequence-confirmed plasmids were used to transform T7 express E coli. Large-scale cell cultures were grown in LB media containing […] carbenicillin and incubated with shaking at 37° C. until the OD600 nm reached 0.6. Then cultures were cooled to 16° C., and 1 mM isopropyl β-D-1-thiogalactopyranoside was added to induce the protein expression. After 20 hours of incubation, cells were harvested. The resulting cell pellet was resuspended in a lysis buffer containing 50 mM Tris pH 7.5, 200 mM NaCl, 0.5 mM imidazole, and 0.3 mM tris(2-carboxyethyl) phosphine (TECP). After the addition of DNase I and lysozyme, the cell suspension was incubated on ice for 30 minutes and lysed by sonication. The lysate was clarified by centrifugation at 12,000 rpm for 45 minutes. The resulting supernatant was applied to a 5 mL metal affinity cobalt column pre-equilibrated with lysis buffer. Then, 25 column volumes of lysis buffer were passed through the column to eliminate unbound E coli proteins. Recombinant protein was eluted isocratically with the elution buffer containing 50 mM Tris pH 7.5, 200 mM NaCl, 150 mM imidazole, and 0.3 mM TECP. The rhinovirus 3C protease was added to the eluted recombinant protein to cleave the N-terminal Histidine tag and the sample dialyzed against a buffer containing 50 mM Tris pH 7.5, 100 mM NaCl and 0.3 mM TECP. After 12 hours, the protein solution was passed through a 5 ml cobalt column, which was pre-equilibrated with dialysis buffer, and the recombinant protein lacking the His-tag was collected from the flowthrough.
Each reaction used 20 μM concentration of recombinant BD protein in a 50 mM Tris pH 7.5 buffer containing 100 mM NaCl, 0.3 mM tris(2-carboxyethyl) phosphine HCl, and 1% dimethyl sulfoxide. Protein Thermal Shift Dye (ThermoFisher) was also added at 1× concentration. Under these conditions, 3 protein melting curves with each respective BD and 100 μM final concentration of ligand were performed from 25 to 95° C. with a ramp rate of 0.5° C./minute. Evaluation of the derivative of the fluorescence signal employed the Applied Bioscience Protein Thermal Shift Software version 1.3 to determine the average melting temperature (Tm) for each sample and the standard deviation(s) of those Tm values.

ONS-76 cells = experiment: Side population (SP) assay; assay type: cell-based; conditions: 30 minutes preincubation; control 4.57%
Description: After washing thrice with staining buffer, 1×10^6 cells were stained with 5 μg/mL of Hoechst 33342 (Thermo Scientific; 62,249) for 1 hour in an incubator with occasional shaking every 20 minutes. The PI solution 5 μL was added to exclude dead cells and analyzed with flow cytometry (LSRII, BD Biosciences).

DAOY cells [1] = experiment: Cell viability MTT assay in DAOY cells; assay type: cell-based, human; conditions: 48-72 hours
Description: (§1) For cell viability assay, DAOY cells from SHH-MB group and HD-MB03 from Group 3 MB were exposed to new analogs in a range of concentrations. In brief, cells were seeded in 96-well plate with a density of 3×10^3 cells/well density for 16 hours. Cells were then treated with different drug concentrations for 48-72 hours. MTT assay reagent was added to the cells and after incubation for 4 hours, formazan crystals were dissolved in 200 μL DMSO, and the absorbance was determined using a microplate reader (Molecular Devices Me5). The IC50 was determined by nonlinear least square regression by performing each experiment in triplicate.

HD-MB03 cells [2] = experiment: Annexin V/PI apoptosis assay in HD-MB03 cells; assay type: cell-based, human; conditions: 48 hours of treatment; untreated 29.76%
Description: (§2) For apoptosis assay, the cells were collected as above and stained with 500 μL 1× binding buffer containing 5 μL annexin V-FITC and 10 μL propidium iodide (PI) in the dark for 5 minutes. Flow cytometry (FACSCalibur™ cytometer, BD Biosciences) was performed to quantify and calculate the cell apoptosis rate. AV-FITC values were set horizontally, and PI values were set as vertical axes. All experiments were performed in triplicate.

HD-MB03 cells [3] = experiment: Cell viability MTT assay in HD-MB03 cells; assay type: cell-based, human
Description: as §1

MB cells = experiment: Scratch (wound) cell migration assay; assay type: cell-based, human; conditions: 0 to 24 hours, vs untreated MB cells
Description: Regarding the cell migration, scratch distances and width closure were measured between images from time 0 to 24 hours. After 24 hours, the untreated MB cells migrated and covered approximately 50% to 60% of the wound area quantified at time zero. […] Initial wound edges marked initial cell migration and were used to identify the decrease in wound width throughout the experiment. Migration distances were shown separately during the period of 0-24 hours. A significant difference in migration distance was found for the treated group compared to the control, while no difference in motility was found within the treated groups.

[4] = tested on: DAOY and HD-MB03 cell-generated tumors; experiment: Subcutaneous MB tumor xenograft model; assay type: in vivo; conditions: for tumor growth / tumor burden: 15 mg/kg dose, vs vehicle treated control
Description: All the animal-related experiments were performed according to the Institutional Animal Care and Use Committee (IACUC) of the University of Nebraska Medical Center's approved protocol and met federal guidelines. Subcutaneous and orthotopic xenograft models were generated in this study. For establishing the xenograft model, DAOY cells (1×10^6) were injected into the right flank of 8-10 weeks old male and female mice. Tumor growth was measured non-invasively by using vernier calipers. For both measurements, tumor volumes were calculated by using the following formula: Volume=(Length×Width^2)/2.
A total of seven injections were given, and the mouse body weights were measured before every injection. The tumor growth was monitored by calipers in the case of the xenograft model and by IVIS imaging for the orthotopic model. For histological examination, the major organs of representative mice from each animal group were dissected and stained with H&E. Tissues after being fixed with 10% paraformaldehyde solution for 24 hours were embedded in 5 μm thick sections of paraffin, and were stained for different proteins. Stained slides were imaged at 40× magnification using an iScan HT Slide Scanner (Ventana Medical Systems, Inc, AZ).

DAOY cells [5] = experiment: Annexin V/PI apoptosis assay in DAOY cells; assay type: cell-based, human; conditions: 48 hours of treatment; untreated 25.61%
Description: as §2

Compound	BRD4-BD2 Tm increase (BRD4-BD2)	percentage of SP proportion (ONS-76 cells)	IC50 (DAOY cells [1])	IC50 (DAOY cells [1]; Homo sapiens, Daoy)	percentage of apoptosis, HD-MB03 (HD-MB03 cells [2])	IC50 (HD-MB03 cells [3]; Homo sapiens, HD-MB03, 48-72 hours, read-out: IC50 in HDMB-03 cells (unit printed M))	cell migration into wound area (MB cells)	tumor growth / tumor burden [4]	toxicity / tolerability by body weight ([4]; 20 mg/kg i.v. every third day)	histologic examination of major organs (liver, lung, spleen, heart, kidneys) ([4]; 20 mg/kg, after completion of treatment)	tumor growth (tumor volume) ([4]; 20 mg/kg, vs vehicle/control group)	H&E staining and Ki-67 IHC of tumors ([4]; DAOY and HD-MB03 generated tumors)	tolerability by body weight and histological examination of vital organs ([4]; tested dose of b195 (15 mg/kg), vs vehicle control)	percentage of apoptotic cells, DAOY (DAOY cells [5])	IC50 (HD-MB03 cells [3]; 48-72 hours, read-out: IC50 in HD-MB03 cells)	BRD4-BD2 Tm decrease (BRD4-BD2; thermal destabilization)	IC50 (HD-MB03 cells [3]; Homo sapiens, HD-MB03, 48-72 hours, read-out: IC50 in HD-MB03 cells)
O=c1cc(N2CCOCC2)oc2c(-c3ccc4c(c3)OCCO4)cccc12 [MDP5, 8-(2,3-dihydrobenzo [b][1,4]dioxin-6-yl)-2-morpholino-4H-chromen-4-one]	1.7 °C	0.9%	5.5 µM	5.57 µM	65.15%	5.14 µM	lesser migration	significant inhibition of tumor growth	no sign of toxicity; also recorded: well tolerated (no bodyweight change)	did not demonstrate toxicity	significantly affected tumor growth; also recorded: reduced tumor growth compared to the control group	suppressed cell proliferation and decreased tumor burden	well tolerated	70.35%			
O=c1cc(N2CCOCC2)oc2c(-c3ccc4c(c3)OCCO4)csc12 [SF2523, reference compound]	3.4 °C	2.57%	12.6 µM		54%		lesser migration	significant inhibition of tumor growth						56.50%	5.14 µM		
O=C(/C=C/N1CCOCC1)c1cccc(-c2cc3c(cc2Br)OCCO3)c1O [MDP1, (E)-1-(3-(7-bromo-2,3-dihydrobenzo [b][1,4]dioxin-6-yl)-2-hydroxyphenyl)-3-morpholinoprop-2-en-1-one]		0.7%		5.51 µM	65.66%		lesser migration	significant inhibition of tumor growth						61.31%		1.3 °C	5.56 µM
